Patent US20260365682A1, “MODULATORS OF TNF-ALPHA ACTIVITY” (Forward Therapeutics, Inc., priority 2022, published 2026)

Target: T1, TNF-α (Homo sapiens, UniProt P01375)
T1 construct: purchased R&D 210-TA-020/CF
Experiment: TNF-α Induced HEK Blue Cellular Assay (secreted alkaline phosphatase expression, QUANTI-Blue)
Type: cell-based
Details: HEK Blue TNFα reporter cells; TNF-α 100 μg/ml; 24 hrs at 37° C.; inhibition of secreted alkaline phosphatase; read-out: IC50 value
In short: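 HEK Blue TNFα reporter cells (10,000/well) in DMEM with 10% FBS received compound ([…] to 0.5 nM final) and TNF-α at […] final for 24 h at 37° C. Secreted alkaline phosphatase read with QUANTI-Blue at 620 nm. IC50 came from a 4-parameter logistic fit after normalising to unstimulated and stimulated DMSO controls.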

T1 sequence (P01375 77-233 limits assumed): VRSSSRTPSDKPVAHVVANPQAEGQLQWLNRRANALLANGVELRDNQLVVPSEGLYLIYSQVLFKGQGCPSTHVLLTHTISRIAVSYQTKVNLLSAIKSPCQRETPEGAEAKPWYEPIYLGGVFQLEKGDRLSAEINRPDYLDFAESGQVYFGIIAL

Structure (SMILES) | IC50 [nM]
[2H]C([2H])([2H])N1C(=O)c2cccc(OC(F)F)c2[C@H]2C[C@@H]1c1nc3ccc(C#CCC(C)OC)cc3n12 (single isomer, unassigned) [Example 149, (7R,14R)-1-(difluoromethoxy)-11-((S or R)-4-methoxypent-1-yn-1-yl)-6-(methyl-d3)-6,7-dihydro-7,14-methanobenzo[f]benzo[4,5]imidazo[1,2-a][1,4]diazocin-5(14H)-one] | < 100
[2H]C([2H])([2H])N1C(=O)c2cccc(OC(F)F)c2[C@H]2C[C@@H]1c1nc3ccc(C#Cc4nnc(NC(C)=O)s4)cc3n12 [Example 260, N-(5-(((7R,14R)-1-(difluoromethoxy)-6-(methyl-d3)-5-oxo-5,6,7,14-tetrahydro-7,14-methanobenzo[f]benzo[4,5]imidazo[1,2-a][1,4]diazocin-11-yl)ethynyl)-1,3,4-thiadiazol-2-yl)acetamide] | < 100
[2H]C([2H])([2H])N1C(=O)c2cccc(OC(F)F)c2[C@H]2C[C@@H]1c1nc3ccc(C#CC4CN(S(C)(=O)=O)C4)cc3n12 [Example 121, (7R,14R)-1-(difluoromethoxy)-6-(methyl-d3)-11-((1-(methylsulfonyl)azetidin-3-yl)ethynyl)-6,7-dihydro-7,14-methanobenzo[f]benzo[4,5]imidazo[1,2-a][1,4]diazocin-5(14H)-one] | < 100
[2H]C([2H])([2H])N1C(=O)c2cccc(OC(F)F)c2[C@H]2C[C@@H]1c1nc3ccc(C#CC4CCN(S(C)(=O)=O)CC4)cc3n12 [Example 185, (7R,14R)-1-(difluoromethoxy)-6-(methyl-d3)-11-((1-(methylsulfonyl)piperidin-4-yl)ethynyl)-6,7-dihydro-7,14-methanobenzo[f]benzo[4,5]imidazo[1,2-a][1,4]diazocin-5(14H)-one] | < 100
[2H]C([2H])([2H])N1C(=O)c2cccc(OC(F)F)c2[C@H]2C[C@@H]1c1nc3ccc(C#Cc4cnn(C)c4)cc3n12 [Example 8, (7R,14R)-1-(difluoromethoxy)-6-(methyl-d3)-11-((1-methyl-1H-pyrazol-4-yl)ethynyl)-6,7-dihydro-7,14-methanobenzo[f]benzo[4,5]imidazo[1,2-a][1,4]diazocin-5(14H)-one] | < 100
[2H]C([2H])([2H])N1C(=O)c2cccc(OC(F)F)c2[C@H]2C[C@@H]1c1nc3ccc(C#CC4CCN(C(=O)C(C)(C)C)C4)cc3n12 (stereo partly drawn) [Example 204, (7R,14R)-1-(difluoromethoxy)-6-(methyl-d3)-11-((1-pivaloylpyrrolidin-3-yl)ethynyl)-6,7-dihydro-7,14-methanobenzo[f]benzo[4,5]imidazo[1,2-a][1,4]diazocin-5(14H)-one] | < 100
[2H]C([2H])([2H])N1C(=O)c2cccc(OC(F)F)c2[C@H]2C[C@@H]1c1nc3ccc(C#CCC(C)OC)cc3n12 (single isomer, unassigned) [Example 148, (7R,14R)-1-(difluoromethoxy)-11-((R or S)-4-methoxypent-1-yn-1-yl)-6-(methyl-d3)-6,7-dihydro-7,14-methanobenzo[f]benzo[4,5]imidazo[1,2-a][1,4]diazocin-5(14H)-one] | < 100
[2H]C([2H])([2H])N1C(=O)c2cccc(OC(F)F)c2[C@H]2C[C@@H]1c1nc3ccc(CCCCO)cc3n12 [Example 99, (7R,14R)-1-(difluoromethoxy)-11-(4-hydroxybutyl)-6-(methyl-d3)-6,7-dihydro-7,14-methanobenzo[f]benzo[4,5]imidazo[1,2-a][1,4]diazocin-5(14H)-one] | < 100
[2H]C([2H])([2H])N1C(=O)c2cccc(OC(F)F)c2[C@H]2C[C@@H]1c1nc3ccc(C#CC4CCCN(C5CC5)C4)cc3n12 (stereo partly drawn) [Example 218, (7R,14R)-11-((1-cyclopropylpiperidin-3-yl)ethynyl)-1-(difluoromethoxy)-6-(methyl-d3)-6,7-dihydro-7,14-methanobenzo[f]benzo[4,5]imidazo[1,2-a][1,4]diazocin-5(14H)-one] | 10000 to 30000
[2H]C([2H])([2H])N1C(=O)c2cccc(OC(F)F)c2[C@H]2C[C@@H]1c1nc3ccc(C#CC(C)CN4CC(F)C4)cc3n12 (stereo partly drawn) [Example 248, (7R,14R)-1-(difluoromethoxy)-11-(4-(3-fluoroazetidin-1-yl)-3-methylbut-1-yn-1-yl)-6-(methyl-d3)-6,7-dihydro-7,14-methanobenzo[f]benzo[4,5]imidazo[1,2-a][1,4]diazocin-5(14H)-one] | 100 to 1000
[2H]C([2H])([2H])N1C(=O)c2cccc(OC(F)F)c2[C@H]2C[C@@H]1c1nc3ccc(C#CC(C)CCO)cc3n12 (single isomer, unassigned) [Example 239, (7R,14R)-1-(difluoromethoxy)-11-((S or R)-5-hydroxy-3-methylpent-1-yn-1-yl)-6-(methyl-d3)-6,7-dihydro-7,14-methanobenzo[f]benzo[4,5]imidazo[1,2-a][1,4]diazocin-5(14H)-one] | < 100

Now from value to molecule:

IC50 [nM] | Structure (SMILES)
10000 to 30000 | [2H]C([2H])([2H])N1C(=O)c2cccc(OC(F)F)c2[C@H]2C[C@@H]1c1nc3ccc(C#C[C@H](C)NCC)cc3n12 [Example 55, (7R,14R)-1-(difluoromethoxy)-11-((S)-3-(ethylamino)but-1-yn-1-yl)-6-(methyl-d3)-6,7-dihydro-7,14-methanobenzo[f]benzo[4,5]imidazo[1,2-a][1,4]diazocin-5(14H)-one]
10000 to 30000 | [2H]C([2H])([2H])N1C(=O)c2cccc(OC(F)F)c2[C@H]2C[C@@H]1c1nc3ccc(C#CC(N)CC(C)(C)O)cc3n12 (single isomer, unassigned) [Example 216, (7R,14R)-11-((S or R)-3-amino-5-hydroxy-5-methylhex-1-yn-1-yl)-1-(difluoromethoxy)-6-(methyl-d3)-6,7-dihydro-7,14-methanobenzo[f]benzo[4,5]imidazo[1,2-a][1,4]diazocin-5(14H)-one]
< 100 | [2H]C([2H])([2H])N1C(=O)c2cccc(OC(F)F)c2[C@H]2C[C@@H]1c1nc3ccc(C#Cc4ncns4)cc3n12 [Example 45, (7R,14R)-11-((1,2,4-thiadiazol-5-yl)ethynyl)-1-(difluoromethoxy)-6-(methyl-d3)-6,7-dihydro-7,14-methanobenzo[f]benzo[4,5]imidazo[1,2-a][1,4]diazocin-5(14H)-one]
< 100 | [2H]C([2H])([2H])N1C(=O)c2cccc(OC(F)F)c2[C@H]2C[C@@H]1c1nc3ccc(C#CCCC(C)O)cc3n12 (stereo partly drawn) [Example 207, (7R,14R)-1-(difluoromethoxy)-11-(5-hydroxyhex-1-yn-1-yl)-6-(methyl-d3)-6,7-dihydro-7,14-methanobenzo[f]benzo[4,5]imidazo[1,2-a][1,4]diazocin-5(14H)-one]
< 100 | [2H]C([2H])([2H])N1C(=O)c2cccc(OC(F)F)c2[C@H]2C[C@@H]1c1nc3ccc(C#CC4CCN(C(=O)C5CC5)CC4)cc3n12 [Example 174, (7R,14R)-11-((1-(cyclopropanecarbonyl)piperidin-4-yl)ethynyl)-1-(difluoromethoxy)-6-(methyl-d3)-6,7-dihydro-7,14-methanobenzo[f]benzo[4,5]imidazo[1,2-a][1,4]diazocin-5(14H)-one]
